Earlier results, collected in PMC8761874 (European Journal of Nuclear Medicine and Molecular Imaging, 2022).
Like-named read-outs stand apart in the source and are kept apart here.

B1: MK-7684: anti-TIGIT mAb in a phase I trial (antibody, chains of the INN, looked up, V domains shown)
VH: EVQLVQSGAEVKKPGSSVKVSCKASGYTFSSYVMHWVRQAPGQGLEWIGYIDPYNDGAKYAQKFQGRVTLTSDKSTSTAYMELSSLRSEDTAVYYCARGGPYGWYFDVWGQGTTVTVSS
VL: DIQMTQSPSSLSASVGDRVTITCRASEHIYSYLSWYQQKPGKVPKLLIYNAKTLAEGVPSRFSGSGSGTDFTLTISSLQPEDVATYYCQHHFGSPLTFGQGTRLEIK

What was measured:
[1] = system: PD-L1-positive non-small cell lung cancer; details: tiragolumab plus atezolizumab, ref [15]
[2] = system: patients with advanced solid tumors; details: ref [13]

Molecule | objective response rate (ORR) ([1]; subgroup with high PD-L1 expression) [%] | objective response rate (ORR) [1] [%] | partial response rate ([2]; in combination with pembrolizumab, n = 8/43) [%] | partial response rate ([2]; monotherapy, n = 1/34) [%]
tiragolumab: anti-TIGIT mAb, given with atezolizumab in the CITYSCAPE trial | 66 | 37 |  | 
B1 |  |  | 19 | 3
